Measured values published in patent US20230097226A1, “GENERATING AORTA-GONAD-MESONEPHROS-LIKE HEMATOPOIETIC CELLS FROM HUMAN PLURIPOTENT STEM CELLS UNDER A DEFINED CONDITION” (Purdue Research Foundation, priority 2020, published 2023).

What was measured:
Type in all cases: cell-based, human
[1] = test system: hPSC-derived hemogenic endothelium; assay: Hematopoietic specification of hPSC-derived hemogenic endothelium, flow cytometry for CD45; details: for generation of CD45+ hematopoietic cells: screening of chemicals and cytokines, feeder-free conditions, 19-9-11 iPSC-derived HE; for yield of resulting stem cells: day 12, differentiation factor applied at hematopoietic specification stage; for yield and purity of CD45+ hematopoietic cells on retrieval from the differentiation medium: day 15 cultures, SCF and FLT3L withdrawn; for efficiency of generating AGM-like hematopoietic stem cells when used in place of SB431542: Day 4-6 of differentiation
Protocol: While OP9-DLL4 stromal cells have been used to efficiently induce hematopoietic and immune cells from our small-molecule induced HE [32], the undefined nature of feeder cells may lead to inaccurate investigation of signaling pathways during hematopoiesis. Thus, to develop a chemically-defined hematopoietic specification platform, screening of known chemicals and cytokines was performed on our hPSC-derived AGM-like HE under feeder-free conditions (FIG. 2A). […] Wnt-059 and SB-induced hematopoiesis were also applicable to H9 and 6-9-9 hPSCs (FIG. 2E).
19-9-11, 19-9-7, 6-9-9, H1, H9 and H13 were obtained from WiCell and maintained on Matrigel- or iMatrix 511-coated plates in mTeSR plus or mTeSR1 medium according to a previously published method. RUES2 were kindly provided by Dr. Ali H. Brivanlou at the Rockefeller University. The Kolf2 and CT2 data were acquired in Dr. Yang Yang's lab and Dr. Ourania Andrisani's lab at Purdue. H9 7TGFβ Wnt reporter and 19-9-11 ischcat-1 as well as ischcat-2 lines were kindly provided by Dr. Sean Palecek at University of Wisconsin-Madison. To make hematopoietic cells, hPSCs were dissociated with 1 mM EDTA and seeded onto iMatrix 511 or Matrigel-coated 6-, 12- or 24-well plate at a cell density between 10,000 and 80,000 cell/cm^2 in mTeSR plus or mTeSR1 medium with 5 μM Y27632 for 24 hours (day-1). At day 0, cells were treated with 6 μM CHIR99021 (CHIR) in DMEM medium supplemented with 100 ug/ml ascorbic acid (DMEM/Vc), followed by a medium change with LasR basal medium at day 1, day 2 and day 3. For female hPSC lines, 50 ng/mL VEGF was added to the medium from day 2 to day 4. At day 4, medium was replaced by Stemline II medium (Sigma) supplemented 10 μM SB431542. After 2 days, SB431542-containing medium was aspirated and cells were maintained in Stemline II medium with or without 50 ng/mL SCF and FLT3L. At day 9 and every 2 to 3 days afterwards, aspirate half medium and add fresh Stemline II medium with or without SCF/FLT3L until analysis. Other media used to induce hematopoietic cells were illustrated in FIG. 8B.
(§1) Floating hematopoietic cells were gently pipetted and filtered through a 70 or 100 μm strainer sitting on a 50 ml tube. The cells were then pelleted by centrifugation and washed once in PBS−/−solution with 1% bovine serum albumin (BSA). The cells were stained with appropriate conjugated antibodies (Table 1) for 25 mins at room temperature in dark, and analyzed in Accuri C6 plus flow cytometer (Beckton Dickinson) after washing once with BSA-containing PBS−/−solution. FlowJo software was used to process collected flow data.

[2] = test system: Wnt signaling; assay: RT-PCR of day 6 HE samples (WNT3A, AXIN2) and 7TGP Wnt reporter line; details: for transcriptional activity of endogenous Wnt signaling: H9 7TGP Wnt reporter line, day 6, eGFP flow cytometry; for expression of WNT3A and AXIN2: RT-PCR, day 6 HE samples
Protocol: Cells cultured on 24-well plate were collected and lysed in 500 μL TRIzol™ reagent (Invitrogen). Total RNA were then prepared with the Direct-zol RNA miniprep kit (Zymo) with in-column DNase treatment following the manufacture's instruction. cDNA was reverse transcribed from 1 μg RNA with ProtoScript First Strand cDNA Synthesis Kit (NEB) and used for RT-PCR with GoTaq Green Master Mix (Promega).

[3] = test system: hPSCs; assay: Hemogenic endothelium differentiation of hPSCs, flow cytometry and immunostaining for CD34/SOX17; details: early CHIR treatment; day 5 cultures
Text: Producing hemogenic endothelium (HE) from hPSCs, marked by the expression of typical endothelial marker VE-cadherin, CD31, and CD34, is a vital step towards hematopoietic cell generation. We've previously developed a robust protocol to generate homogenous CD34+CD31+HE from hPSCs via small-molecule activation of Wnt signaling (FIG. 1A-B). Since simultaneous modulation of Wnt and Activin signaling yields aorta-like SOX17+ vessels in AGM that give rise to hematopoietic cells, we speculated that our small molecule-induced CD34+CD31+ cells are also SOX17+, which was confirmed by flow cytometry and immunostaining analysis of SOX17 expression (FIG. 1C-D). […] Importantly, the resulting CD34+SOX17+AGM-like HE didn't express CD235a, markers of primitive hematopoiesis.
19-9-11, 19-9-7, 6-9-9, H1, H9 and H13 were obtained from WiCell and maintained on Matrigel- or iMatrix 511-coated plates in mTeSR plus or mTeSR1 medium according to a previously published method. RUES2 were kindly provided by Dr. Ali H. Brivanlou at the Rockefeller University. […]
as §1, with “The cells were then pelleted by centrifugation and washed once in PBS−/−solution with 1% bovine serum albumin (BSA).” left out, “FlowJo software was used to process collected flow data.” left out

`Cc1cc(-c2ccc(CC(=O)Nc3ccc(-c4cccnc4)cc3)cc2)ccn1` [Wnt-059] was tested, and the “generation of CD45+ hematopoietic cells” value [1] was “significantly induced”, the “transcriptional activity of endogenous Wnt signaling” value [2] was “low transcriptional activity” and the “expression of WNT3A and AXIN2” value [2] was “low expression”.

In the case of `Cc1c[nH]c(-c2cnc(NCCNc3ccc(C#N)cn3)nc2-c2ccc(Cl)cc2Cl)n1` [CHIR99021], the “effect on hematopoiesis induced by SB” value ([1]; activation of Wnt signaling together with SB) is reported as “blocked” and the “CD34+SOX17+ population obtained” value [3] is reported as “homogenous CD34+SOX17+ population”.

With `NC(=O)c1ccc(-c2nc(-c3ccc4c(c3)OCO4)c(-c3ccccn3)[nH]2)cc1` [SB431542] the “CD45+ hematopoietic cells” value ([1]; SB treatment day 4 to 6, read on day 12, 19-9-11 iPSCs) was “more than 40%”, the “yield of resulting stem cells” value [1] was 40.9% and the “generation of CD45+ hematopoietic cells” value [1] was “significantly enhanced”. The “transcriptional activity of endogenous Wnt signaling” value [2] was “low transcriptional activity” and the “expression of WNT3A and AXIN2” value [2] was “low expression”.

In the case of stem cell factor [SCF], the “yield and purity of CD45+ hematopoietic cells on retrieval from the differentiation medium” value [1] is reported as “reduced both the yield and purity”.

In the case of thrombopoietin [TPO], the “promotion of hematopoietic cell production” value [1] is reported as “work well” and the “yield of resulting stem cells” value [1] is reported as 30.4%.

In the case of heparin, the “promotion of hematopoietic cell production” value [1] is reported as “work well” and the “yield of resulting stem cells” value [1] is reported as 20.6%.

B1: FMS-like tyrosine kinase 3 ligand (protein, UniProt P49771 27-235, looked up)
Fms-related tyrosine kinase 3 …: TQDCSFQHSPISSDFAVKIRELSDYLLQDYPVTVASNLQDEELCGGLWRLVLAQRWMERLKTVAGSKMQGLLERVNTEIHFVTKCAFQPPPSCLRFVQTNISRLLQETSEQLVALKPWITRQNFSRCLELQCQPDSSTLPPPWSPRPLEATAPTAPQPPLLLLLLLPVGLLLLAAAWCLHWQRTRRRTPRPGEQVPPVPSPQDLLLVEH
notes: Recombinant Human Flt3-Ligand, Peprotech #300-19
For B1, the “yield and purity of CD45+ hematopoietic cells on retrieval from the differentiation medium” value [1] was “reduced both the yield and purity”.

B2: IL-16: cytokine that could be used in place of SB431542, lower efficiency (protein, UniProt Q14005 1212-1332, looked up)
Interleukin-16: SAASASAASDVSVESTAEATVCTVTLEKMSAGLGFSLEGGKGSLHGDKPLTINRIFKGAASEQSETVQPGDEILQLGGTAMQGLTRFEAWNIIKALPDGPVTIVIRRKSLQSKETTAAGDS
B2 was tested, and the “efficiency of generating AGM-like hematopoietic stem cells when used in place of SB431542” value [1] was “lower efficiency”.

B3: colony-stimulating factor 3 (protein, UniProt P09919 31-207, looked up)
Granulocyte …: TPLGPASSLPQSFLLKCLEQVRKIQGDGAALQEKLVSECATYKLCHPEELVLLGHSLGIPWAPLSSCPSQALQLAGCLSQLHSGLFLYQGLLQALEGISPELGPTLDTLQLDVADFATTIWQQMEELGMAPALQPTQGAMPAFASAFQRRAGGVLVASHLQSFLEVSYRVLRHLAQP
With B3 the “efficiency of generating AGM-like hematopoietic stem cells when used in place of SB431542” value [1] was “lower efficiency”.
